Source: patent US9409866B2, “Pyridine-2-amides useful as CB2 agonists” (Hoffmann-La Roche Inc., priority 2012, dated 2016)
Where two headings read alike, the source gives them in different places.

Key:
human CB1 receptors = human CB1 receptors (Homo sapiens (Human), UniProt P21554); experiment: functional cAMP assay, CHO cells expressing human CB1; format: cell-based
Description: (§1) CHO cells expressing human CB1 or CB2 receptors are seeded 17-24 hours prior to the experiment 50.000 cells per well in a black 96 well plate with flat clear bottom (Corning Costar #3904) in DMEM (Invitrogen No. 31331), 1×HT supplement, with 10% fetal calf serum and incubated at 5% CO2 and 37° C. in a humidified incubator. The growth medium was exchanged with Krebs Ringer Bicarbonate buffer with 1 mM IBMX and incubated at 30° C. for 30 min. Compounds were added to a final assay volume of 100 μl and incubated for 30 min at 30° C. Using the cAMP-Nano-TRF detection kit the assay (Roche Diagnostics) was stopped by the addition of 50 μl lysis reagent (Tris, NaCl, 1.5% Triton X100, 2.5% NP40, 10% NaN3) and 50 μl detection solutions (20 μM mAb Alexa700-cAMP 1:1, and 48 μM Ruthenium-2-AHA-cAMP) and shaken for 2 h at room temperature. The time-resolved energy transfer is measured by a TRF reader (Evotec Technologies GmbH), equipped with a ND:YAG laser as excitation source. The plate is measured twice with the excitation at 355 nm and at the emission with a delay of 100 ns and a gate of 100 ns, total exposure time 10 s at 730 (bandwidth 30 nm) or 645 nm (bandwidth 75 nm), respectively. The FRET signal is calculated as follows: FRET=T730-Alexa730-P(T645-B645) with P=Ru730-B730/Ru645-B645, where T730 is the test well measured at 730 nM, T645 is the test well measured at 645 nm, B730 and B645 are the buffer controls at 730 nm and 645 nm, respectively. cAMP content is determined from the function of a standard curve spanning from 10 μM to 0.13 nM cAMP.
(§2) EC50 values were determined using Activity Base analysis (ID Business Solution, Limited). The EC50 values for a wide range of cannabinoid agonists generated from this assay were in agreement with the values published in the scientific literature.

human CB2 receptors = human CB2 receptors (Homo sapiens (Human), UniProt P34972); experiment: functional cAMP assay, CHO cells expressing human CB2; format: cell-based
Chain of human CB2 receptors (P34972 whole entry): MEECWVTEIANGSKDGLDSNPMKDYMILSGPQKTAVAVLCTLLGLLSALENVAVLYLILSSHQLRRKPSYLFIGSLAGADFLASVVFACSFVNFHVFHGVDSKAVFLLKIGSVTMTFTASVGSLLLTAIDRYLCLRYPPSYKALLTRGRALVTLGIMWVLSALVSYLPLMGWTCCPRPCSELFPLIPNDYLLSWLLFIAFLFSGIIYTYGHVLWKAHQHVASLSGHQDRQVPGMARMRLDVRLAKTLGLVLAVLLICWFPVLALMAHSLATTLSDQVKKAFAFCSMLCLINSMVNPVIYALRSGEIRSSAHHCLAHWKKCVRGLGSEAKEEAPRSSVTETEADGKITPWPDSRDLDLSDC
Description: as §1, §2

[1] = Human CB1 EC50 (uM), functional cAMP assay, CHO cells expressing human CB1
[2] = read-out: Human CB1 EC50, functional cAMP assay, CHO cells expressing human CB1

Chain of human CB1 receptors (P21554 whole entry): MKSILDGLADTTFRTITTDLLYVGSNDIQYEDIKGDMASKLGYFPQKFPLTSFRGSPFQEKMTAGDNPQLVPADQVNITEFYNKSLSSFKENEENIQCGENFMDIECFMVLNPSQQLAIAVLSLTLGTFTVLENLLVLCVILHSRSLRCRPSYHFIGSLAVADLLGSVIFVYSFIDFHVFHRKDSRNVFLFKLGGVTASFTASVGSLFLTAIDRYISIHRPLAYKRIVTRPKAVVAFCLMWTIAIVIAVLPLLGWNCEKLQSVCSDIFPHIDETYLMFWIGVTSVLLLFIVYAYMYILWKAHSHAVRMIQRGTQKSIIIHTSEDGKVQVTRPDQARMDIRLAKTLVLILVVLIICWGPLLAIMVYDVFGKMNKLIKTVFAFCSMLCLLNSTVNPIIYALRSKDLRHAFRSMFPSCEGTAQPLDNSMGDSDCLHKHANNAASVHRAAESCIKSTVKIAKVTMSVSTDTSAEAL

SMILES | EC50 (human CB1 receptors; [1]) [µM] | EC50 (human CB2 receptors; Human CB2 EC50 (uM)) [µM] | EC50 (human CB1 receptors; [2]) [µM] | EC50 (human CB1 receptors) [µM] | EC50 (human CB2 receptors; read-out: Human CB2 EC50) [µM]
Cc1nc([C@@](C)(NC(=O)c2cc(OCC(F)(F)F)c(N3CC(F)(F)C3)cn2)C2CC2)no1 (single isomer, unassigned) [Example 88, 5-(3,3-Difluoro-azetidin-1-yl)-4-(2,2,2-trifluoro-ethoxy)-pyridine-2-carboxylic acid [1-cyclopropyl-1-(5-methyl-[1,2,4]oxadiazol-3-yl)-ethyl]-amide] | 1.79 | 0.0105 | – | – | –
Cc1nc([C@@](C)(CC2CC2)NC(=O)c2cc(OCC(F)(F)F)c(N3CC(F)(F)C3)cn2)no1 (single isomer, unassigned) [Example 91, 5-(3,3-Difluoro-azetidin-1-yl)-4-(2,2,2-trifluoro-ethoxy)-pyridine-2-carboxylic acid [2-cyclopropyl-1-methyl-1-(5-methyl-[1,2,4]oxadiazol-3-yl)-ethyl]-amide] | > 10 | 0.0303 | – | – | –
Cc1nc([C@](C)(CC2CC2)NC(=O)c2cc(OCC(F)(F)F)c(N3CC(F)(F)C3)cn2)no1 (single isomer, unassigned) [Example 92, 5-(3,3-Difluoro-azetidin-1-yl)-4-(2,2,2-trifluoro-ethoxy)-pyridine-2-carboxylic acid [2-cyclopropyl-1-methyl-1-(5-methyl-[1,2,4]oxadiazol-3-yl)-ethyl]-amide] | > 10 | 0.0214 | – | – | –
Cc1nc([C@@](C)(CC2CC2)NC(=O)c2cc(OCC(F)(F)F)c(Cl)cn2)no1 (single isomer, unassigned) [Example 93, 5-Chloro-4-(2,2,2-trifluoro-ethoxy)-pyridine-2-carboxylic acid [2-cyclopropyl-1-methyl-1-(5-methyl-[1,2,4]oxadiazol-3-yl)-ethyl]-amide] | > 10 | 0.0651 | – | – | –
Cc1nc([C@](C)(CC2CC2)NC(=O)c2cc(OCC(F)(F)F)c(Cl)cn2)no1 (single isomer, unassigned) [Example 94, 5-Chloro-4-(2,2,2-trifluoro-ethoxy)-pyridine-2-carboxylic acid [2-cyclopropyl-1-methyl-1-(5-methyl-[1,2,4]oxadiazol-3-yl)-ethyl]-amide] | > 10 | 0.0747 | – | – | –
Cc1nc([C@@](C)(CS(C)(=O)=O)NC(=O)c2cc(OCC(F)(F)F)c(C3CC3)cn2)no1 (single isomer, unassigned) [Example 98, 5-Cyclopropyl-4-(2,2,2-trifluoro-ethoxy)-pyridine-2-carboxylic acid [2-methanesulfonyl-1-methyl-1-(5-methyl-[1,2,4]oxadiazol-3-yl)-ethyl]-amide] | > 10 | 0.0706 | – | – | –
Cc1nc([C@](C)(CS(C)(=O)=O)NC(=O)c2cc(OCC(F)(F)F)c(C3CC3)cn2)no1 (single isomer, unassigned) [Example 99, 5-Cyclopropyl-4-(2,2,2-trifluoro-ethoxy)-pyridine-2-carboxylic acid [2-methanesulfonyl-1-methyl-1-(5-methyl-[1,2,4]oxadiazol-3-yl)-ethyl]-amide] | > 10 | 0.104 | – | – | –
Cc1nc([C@@](C)(CC(C)(C)C)NC(=O)c2cc(OCC(F)(F)F)c(C3CC3)cn2)no1 (single isomer, unassigned) [Example 104, 5-Cyclopropyl-4-(2,2,2-trifluoro-ethoxy)-pyridine-2-carboxylic acid [1,3,3-trimethyl-1-(5-methyl-[1,2,4]oxadiazol-3-yl)-butyl]-amide] | > 10 | 0.0298 | – | – | –
Cc1nc([C@](C)(CC(C)(C)C)NC(=O)c2cc(OCC(F)(F)F)c(C3CC3)cn2)no1 (single isomer, unassigned) [Example 105, 5-Cyclopropyl-4-(2,2,2-trifluoro-ethoxy)-pyridine-2-carboxylic acid [1,3,3-trimethyl-1-(5-methyl-[1,2,4]oxadiazol-3-yl)-butyl]-amide] | 0.33 | 0.0023 | – | – | –
Cc1nc(C(C)(CC2CC2)NC(=O)c2cc(OCC(F)(F)F)c(C3CCC3)cn2)no1 (single isomer, unassigned) [Example 116, 5-cyclobutyl-N-[1-cyclopropyl-2-(5-methyl-1,2,4-oxadiazol-3-yl)propan-2-yl]-4-(2,2,2-trifluoroethoxy)pyridine-2-carboxamide] | > 10 | 0.0041 | – | – | –
Cc1nc(C(C)(CC2CC2)NC(=O)c2cc(OCC(F)(F)F)c(C3CCC3)cn2)no1 (single isomer, unassigned) [Example 117, 5-cyclobutyl-N-[1-cyclopropyl-2-(5-methyl-1,2,4-oxadiazol-3-yl)propan-2-yl]-4-(2,2,2-trifluoroethoxy)pyridine-2-carboxamide] | – | 0.0024 | > 10 | – | –
Cc1nc(C(C)(CS(C)(=O)=O)NC(=O)c2cc(OCC(F)(F)F)c(C3CCC3)cn2)no1 (single isomer, unassigned) [Example 124, 5-cyclobutyl-N-[1-methyl-1-(5-methyl-1,2,4-oxadiazol-3-yl)-2-methylsulfonyl-ethyl]-4-(2,2,2-trifluoroethoxy)pyridine-2-carboxamide] | > 10 | 0.0159 | – | – | –
Cc1nc(C(C)(CS(C)(=O)=O)NC(=O)c2cc(OCC(F)(F)F)c(C3CCC3)cn2)no1 (single isomer, unassigned) [Example 125, 5-cyclobutyl-N-[1-methyl-1-(5-methyl-1,2,4-oxadiazol-3-yl)-2-methylsulfonyl-ethyl]-4-(2,2,2-trifluoroethoxy)pyridine-2-carboxamide] | – | 0.011 | > 10 | – | –
Cc1nc(C(C)(CS(C)(=O)=O)NC(=O)c2cc(OCC(F)(F)F)c(C3(F)COC3)cn2)no1 (single isomer, unassigned) [Example 132, 5-(3-fluorooxetan-3-yl)-N-[2-(5-methyl-1,2,4-oxadiazol-3-yl)-1-methylsulfonylpropan-2-yl]-4-(2,2,2-trifluoroethoxy)pyridine-2-carboxamide] | – | – | – | > 10 | 0.333
Cc1nc(C(C)(CS(C)(=O)=O)NC(=O)c2cc(OCC(F)(F)F)c(C3(F)COC3)cn2)no1 (single isomer, unassigned) [Example 133, 5-(3-fluorooxetan-3-yl)-N-[2-(5-methyl-1,2,4-oxadiazol-3-yl)-1-methylsulfonylpropan-2-yl]-4-(2,2,2-trifluoroethoxy)pyridine-2-carboxamide] | – | – | > 10 | – | 0.568
Cc1nc(C(C)(CC2CC2)NC(=O)c2cc(OCC(F)(F)F)c(C3(F)COC3)cn2)no1 (single isomer, unassigned) [Example 135, N-[1-cyclopropyl-2-(5-methyl-1,2,4-oxadiazol-3-yl)propan-2-yl]-5-(3-fluorooxetan-3-yl)-4-(2,2,2-trifluoroethoxy)pyridine-2-carboxamide] | > 10 | 0.144 | – | – | –
Cc1nc(C(C)(CC2CC2)NC(=O)c2cc(OCC(F)(F)F)c(C3(F)COC3)cn2)no1 (single isomer, unassigned) [Example 136, N-[1-cyclopropyl-2-(5-methyl-1,2,4-oxadiazol-3-yl)propan-2-yl]-5-(3-fluorooxetan-3-yl)-4-(2,2,2-trifluoroethoxy)pyridine-2-carboxamide] | – | 0.125 | > 10 | – | –
Cn1nnnc1C(NC(=O)c1cc(OCC(F)(F)F)c(C2CC2)cn1)C(C)(C)C (centres unmarked) [Example 164, 5-cyclopropyl-N-[2,2-dimethyl-1-(1-methyltetrazol-5-yl)propyl]-4-(2,2,2-trifluoroethoxy)pyridine-2-carboxamide] | – | 0.0168 | – | – | –
